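96-well plates; 48 h exposure; 5 concentrations. Endpoints by linear interpolation between flanking doses. Not reached: highest tested concentration assigned. TGI: total growth inhibition.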
Columns and labels:
Test in all cases: NCI-60 cell line screen, 48 h
K-562 leukemia = tested on: K-562 leukemia
NCI-H460 lung = tested on: NCI-H460 lung
MDA-N = tested on: MDA-N
OVCAR-3 ovarian = tested on: OVCAR-3 ovarian
HOP-62 NSCLC = tested on: HOP-62 NSCLC
NCI-H522 lung = tested on: NCI-H522 lung
HS 578T breast = tested on: HS 578T breast
MOLT-4 leukemia = tested on: MOLT-4 leukemia
CAKI-1 renal = tested on: CAKI-1 renal
HCT-116 colon = tested on: HCT-116 colon
TK-10 renal = tested on: TK-10 renal
M14 melanoma = tested on: M14 melanoma
EKVX NSCLC = tested on: EKVX NSCLC
SF-295 CNS = tested on: SF-295 CNS
MDA-MB-435 = tested on: MDA-MB-435
HT29 colon = tested on: HT29 colon
BT-549 breast = tested on: BT-549 breast
NCI/ADR-RES ovarian = tested on: NCI/ADR-RES ovarian
SF-268 CNS = tested on: SF-268 CNS
IGROV1 ovarian = tested on: IGROV1 ovarian
SK-OV-3 ovarian = tested on: SK-OV-3 ovarian
HCC-2998 colon = tested on: HCC-2998 colon
UO-31 renal = tested on: UO-31 renal
CCRF-CEM leukemia = tested on: CCRF-CEM leukemia
LOX IMVI melanoma = tested on: LOX IMVI melanoma
SNB-19 CNS = tested on: SNB-19 CNS
A549 NSCLC = tested on: A549 NSCLC
SW-620 colon = tested on: SW-620 colon
OVCAR-8 ovarian = tested on: OVCAR-8 ovarian
MALME-3M melanoma = tested on: MALME-3M melanoma
OVCAR-5 ovarian = tested on: OVCAR-5 ovarian
NCI-H23 lung = tested on: NCI-H23 lung
786-0 renal = tested on: 786-0 renal
RPMI-8226 leukemia = tested on: RPMI-8226 leukemia
SN12C renal = tested on: SN12C renal
SR leukemia = tested on: SR leukemia
UACC-257 melanoma = tested on: UACC-257 melanoma
HL-60(TB) leukemia = tested on: HL-60(TB) leukemia
HCT-15 colon = tested on: HCT-15 colon
HOP-92 NSCLC = tested on: HOP-92 NSCLC
T-47D breast = tested on: T-47D breast
KM12 colon = tested on: KM12 colon
SNB-75 CNS = tested on: SNB-75 CNS
A498 renal = tested on: A498 renal
SF-539 CNS = tested on: SF-539 CNS
NCI-H226 lung = tested on: NCI-H226 lung
RXF 393 renal = tested on: RXF 393 renal
MCF7 breast = tested on: MCF7 breast
SK-MEL-5 melanoma = tested on: SK-MEL-5 melanoma
UACC-62 melanoma = tested on: UACC-62 melanoma
ACHN renal = tested on: ACHN renal
MDA-MB-231 breast = tested on: MDA-MB-231 breast
U251 CNS = tested on: U251 CNS
COLO 205 colon = tested on: COLO 205 colon
OVCAR-4 ovarian = tested on: OVCAR-4 ovarian
SK-MEL-28 melanoma = tested on: SK-MEL-28 melanoma
PC-3 prostate = tested on: PC-3 prostate
DU-145 prostate = tested on: DU-145 prostate
SK-MEL-2 melanoma = tested on: SK-MEL-2 melanoma

## COc1ccc2c3c1O[C@H]1C(OC)C=CC4C(C2)N(Cc2cccs2)CCC341 (stereo not given in full)
K-562 leukemia
  TGI: > 100 µM
NCI-H460 lung
  TGI: > 100 µM
MDA-N
  TGI: > 100 µM
OVCAR-3 ovarian
  TGI: > 100 µM
HOP-62 NSCLC
  TGI: > 100 µM
NCI-H522 lung
  TGI: > 100 µM
HS 578T breast
  TGI: > 100 µM
MOLT-4 leukemia
  TGI: > 100 µM
CAKI-1 renal
  TGI: > 100 µM
HCT-116 colon
  TGI: > 100 µM
TK-10 renal
  TGI: > 100 µM
M14 melanoma
  TGI: > 100 µM
EKVX NSCLC
  TGI: > 100 µM
SF-295 CNS
  TGI: > 100 µM
MDA-MB-435
  TGI: > 100 µM
HT29 colon
  TGI: > 100 µM
BT-549 breast
  TGI: > 100 µM
NCI/ADR-RES ovarian
  TGI: > 100 µM
SF-268 CNS
  TGI: > 100 µM
IGROV1 ovarian
  TGI: > 100 µM
SK-OV-3 ovarian
  TGI: > 100 µM
HCC-2998 colon
  TGI: > 100 µM
UO-31 renal
  TGI: > 100 µM
CCRF-CEM leukemia
  TGI: > 100 µM
LOX IMVI melanoma
  TGI: > 100 µM
SNB-19 CNS
  TGI: > 100 µM
A549 NSCLC
  TGI: > 100 µM
SW-620 colon
  TGI: > 100 µM
OVCAR-8 ovarian
  TGI: > 100 µM
MALME-3M melanoma
  TGI: > 100 µM
OVCAR-5 ovarian
  TGI: > 100 µM
NCI-H23 lung
  TGI: > 100 µM
786-0 renal
  TGI: > 100 µM
RPMI-8226 leukemia
  TGI: > 100 µM
SN12C renal
  TGI: > 100 µM
SR leukemia
  TGI: > 100 µM
UACC-257 melanoma
  TGI: > 100 µM
HL-60(TB) leukemia
  TGI: > 100 µM
HCT-15 colon
  TGI: > 100 µM
HOP-92 NSCLC
  TGI: > 100 µM

## CC(=O)O[C@H]1C(=O)[C@@]2(C)[C@H]([C@H](OC(=O)c3ccccc3)[C@]3(O)C[C@H](OC(=O)[C@H](O)[C@@H](NC(=O)c4cccc(N=[N+]=[N-])c4)c4ccccc4)C(C)=C1C3(C)C)[C@]1(OC(C)=O)CO[C@@H]1C[C@@H]2O
K-562 leukemia
  TGI: 0.0242 µM
NCI-H460 lung
  TGI: > 25 µM
MDA-N
  TGI: 0.00735 µM
T-47D breast
  TGI: > 25 µM
KM12 colon
  TGI: > 25 µM
HS 578T breast
  TGI: 0.0712 µM
MOLT-4 leukemia
  TGI: 1.12 µM
CAKI-1 renal
  TGI: > 25 µM
TK-10 renal
  TGI: > 20.1 µM
M14 melanoma
  TGI: 3.23 µM
EKVX NSCLC
  TGI: > 25 µM
SF-295 CNS
  TGI: 0.19 µM
MDA-MB-435
  TGI: 0.00412 µM
SNB-75 CNS
  TGI: 0.785 µM
A498 renal
  TGI: 7.62 µM
SF-539 CNS
  TGI: 0.0133 µM
NCI-H226 lung
  TGI: > 25 µM
HT29 colon
  TGI: > 6.26 µM
NCI/ADR-RES ovarian
  TGI: > 25 µM
SF-268 CNS
  TGI: > 25 µM
RXF 393 renal
  TGI: 0.897 µM
IGROV1 ovarian
  TGI: > 25 µM
SK-OV-3 ovarian
  TGI: > 25 µM
MCF7 breast
  TGI: > 25 µM
UO-31 renal
  TGI: > 25 µM
CCRF-CEM leukemia
  TGI: 0.0681 µM
LOX IMVI melanoma
  TGI: > 25 µM
SK-MEL-5 melanoma
  TGI: 3.11 µM
SNB-19 CNS
  TGI: > 25 µM
A549 NSCLC
  TGI: > 25 µM
SW-620 colon
  TGI: > 25 µM
UACC-62 melanoma
  TGI: > 15.9 µM
OVCAR-8 ovarian
  TGI: > 25 µM
MALME-3M melanoma
  TGI: > 25 µM
OVCAR-5 ovarian
  TGI: 1.06 µM
ACHN renal
  TGI: > 25 µM
MDA-MB-231 breast
  TGI: 0.422 µM
786-0 renal
  TGI: > 25 µM
U251 CNS
  TGI: 0.635 µM
RPMI-8226 leukemia
  TGI: 0.134 µM
SN12C renal
  TGI: > 25 µM
SR leukemia
  TGI: 0.162 µM
COLO 205 colon
  TGI: 0.0405 µM
OVCAR-4 ovarian
  TGI: > 25 µM
SK-MEL-28 melanoma
  TGI: > 22.8 µM
HL-60(TB) leukemia
  TGI: < 0.0025 µM
HCT-15 colon
  TGI: > 25 µM
HOP-92 NSCLC
  TGI: > 23.9 µM
PC-3 prostate
  TGI: > 25 µM

## CN(C)CCCNc1ccc([N+](=O)[O-])c2nc3ccccc3c(N)c12
K-562 leukemia
  TGI: 2.27 µM
NCI-H460 lung
  TGI: 1.38 µM
MDA-N
  TGI: 2.18 µM
OVCAR-3 ovarian
  TGI: 5.05 µM
KM12 colon
  TGI: 1.53 µM
HOP-62 NSCLC
  TGI: > 10 µM
DU-145 prostate
  TGI: 1.75 µM
HS 578T breast
  TGI: > 10 µM
MOLT-4 leukemia
  TGI: 3.42 µM
CAKI-1 renal
  TGI: > 10 µM
HCT-116 colon
  TGI: 1.33 µM
TK-10 renal
  TGI: > 10 µM
M14 melanoma
  TGI: 1.95 µM
EKVX NSCLC
  TGI: 2.35 µM
SF-295 CNS
  TGI: 1.53 µM
MDA-MB-435
  TGI: 2.26 µM
A498 renal
  TGI: 6.92 µM
SF-539 CNS
  TGI: 1.82 µM
NCI-H226 lung
  TGI: > 10 µM
HT29 colon
  TGI: 1.72 µM
BT-549 breast
  TGI: 4.75 µM
NCI/ADR-RES ovarian
  TGI: 1.84 µM
SF-268 CNS
  TGI: 4.92 µM
RXF 393 renal
  TGI: 2.29 µM
IGROV1 ovarian
  TGI: 6.47 µM
SK-OV-3 ovarian
  TGI: 0.987 µM
MCF7 breast
  TGI: > 10 µM
UO-31 renal
  TGI: 2.97 µM
CCRF-CEM leukemia
  TGI: 2.99 µM
LOX IMVI melanoma
  TGI: 1.63 µM
SK-MEL-5 melanoma
  TGI: 2.44 µM
SNB-19 CNS
  TGI: 3.23 µM
A549 NSCLC
  TGI: 2.37 µM
SW-620 colon
  TGI: 1.63 µM
SK-MEL-2 melanoma
  TGI: 2.69 µM
UACC-62 melanoma
  TGI: > 10 µM
MALME-3M melanoma
  TGI: > 10 µM
OVCAR-5 ovarian
  TGI: > 10 µM
NCI-H23 lung
  TGI: 2.78 µM
ACHN renal
  TGI: 1.61 µM
MDA-MB-231 breast
  TGI: 2.53 µM
786-0 renal
  TGI: 1.8 µM
U251 CNS
  TGI: 2.12 µM
RPMI-8226 leukemia
  TGI: 2.14 µM
SN12C renal
  TGI: 7.37 µM
SR leukemia
  TGI: > 10 µM
UACC-257 melanoma
  TGI: > 10 µM
OVCAR-4 ovarian
  TGI: 0.595 µM
SK-MEL-28 melanoma
  TGI: > 10 µM
HCT-15 colon
  TGI: 1.7 µM
HOP-92 NSCLC
  TGI: 5.08 µM
PC-3 prostate
  TGI: 1.69 µM

## CC(C)C1=CC23CCC4C(C)(C(=O)O)CCCC4(C)C2CC1C1C(=O)N(c2ccccc2N2C(=O)C4C5CC6C7(C)CCCC(C)(C(=O)O)C7CCC6(C=C5C(C)C)C4C2=O)C(=O)C13 (stereo not given)
K-562 leukemia
  TGI: 73 µM
MDA-N
  TGI: 19.4 µM
T-47D breast
  TGI: 42.5 µM
OVCAR-3 ovarian
  TGI: 23.4 µM
KM12 colon
  TGI: 13.8 µM
HOP-62 NSCLC
  TGI: 18.9 µM
DU-145 prostate
  TGI: 21.8 µM
NCI-H522 lung
  TGI: 23 µM
HS 578T breast
  TGI: 34.1 µM
MOLT-4 leukemia
  TGI: 14.2 µM
HCT-116 colon
  TGI: 18.2 µM
TK-10 renal
  TGI: 27.3 µM
M14 melanoma
  TGI: 19.8 µM
EKVX NSCLC
  TGI: 17.9 µM
MDA-MB-435
  TGI: 13.1 µM
A498 renal
  TGI: 13.6 µM
SF-539 CNS
  TGI: 12.5 µM
NCI-H226 lung
  TGI: 30.2 µM
HT29 colon
  TGI: 10.6 µM
SF-268 CNS
  TGI: 16.5 µM
RXF 393 renal
  TGI: 32.1 µM
HCC-2998 colon
  TGI: 16.1 µM
UO-31 renal
  TGI: 32.3 µM
CCRF-CEM leukemia
  TGI: 22.1 µM
SK-MEL-5 melanoma
  TGI: 17.5 µM
SNB-19 CNS
  TGI: 16 µM
A549 NSCLC
  TGI: 38.7 µM
SW-620 colon
  TGI: 30.6 µM
SK-MEL-2 melanoma
  TGI: 26.1 µM
MALME-3M melanoma
  TGI: 28.3 µM
OVCAR-5 ovarian
  TGI: 25 µM
NCI-H23 lung
  TGI: 11.6 µM
ACHN renal
  TGI: 21.8 µM
MDA-MB-231 breast
  TGI: 32.3 µM
786-0 renal
  TGI: 62.8 µM
U251 CNS
  TGI: 12 µM
RPMI-8226 leukemia
  TGI: > 100 µM
SN12C renal
  TGI: 24.8 µM
SR leukemia
  TGI: 17.3 µM
COLO 205 colon
  TGI: 17.8 µM
OVCAR-4 ovarian
  TGI: 38.8 µM
HCT-15 colon
  TGI: 29.8 µM
HOP-92 NSCLC
  TGI: 32.5 µM
PC-3 prostate
  TGI: 14 µM
